Test results taken from PubChem BioAssay AID2060486 (Molecular Pharmacology Branch, DTP, NCI, 2025).

Tested on: IGROV1 complex spheroids (HUVEC, MSC), viability % test/control
Assay: Anticancer human tumor IGROV1 cell line growth inhibition [GQUAD];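 also: spheroids exposed to compounds for 7 days before readout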;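 as to viability, T/C: 100% = DMSO vehicle control viability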
Conditions: for IC50: curve of first compound; for viability, T/C: stronger effect = lower value
How it was run: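 Viability of tumor cells grown as complex spheroids with endothelial and stromal cells, exposed to drug combinations. Top concentration at or near clinical Cmax (else 10 microM), diluted in half-log increments.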

[1] = second compound 0.0316 µM, first compound 0.0316 µM
[2] = second compound 0.0316 µM, first compound 0.1 µM
[3] = second compound 0.0316 µM, first compound 0.316 µM
[4] = second compound 0.0316 µM, first compound 1 µM
[5] = second compound 0.0316 µM, first compound 3.16 µM
[6] = second compound 0.0316 µM, first compound 10 µM
[7] = second compound 0.1 µM, first compound 0.0316 µM
[8] = second compound 0.1 µM, first compound 0.1 µM
[9] = second compound 0.1 µM, first compound 0.316 µM
[10] = second compound 0.1 µM, first compound 1 µM
[11] = second compound 0.1 µM, first compound 3.16 µM
[12] = second compound 0.1 µM, first compound 10 µM
[13] = second compound 0.316 µM, first compound 0.0316 µM
[14] = second compound 0.316 µM, first compound 0.1 µM
[15] = second compound 0.316 µM, first compound 0.316 µM
[16] = second compound 0.316 µM, first compound 1 µM
[17] = second compound 0.316 µM, first compound 3.16 µM
[18] = second compound 0.316 µM, first compound 10 µM
[19] = second compound 1 µM, first compound 0.0316 µM
[20] = second compound 1 µM, first compound 0.1 µM
[21] = second compound 1 µM, first compound 0.316 µM
[22] = second compound 1 µM, first compound 1 µM
[23] = second compound 1 µM, first compound 3.16 µM
[24] = second compound 1 µM, first compound 10 µM
[25] = second compound 3.16 µM, first compound 0.0316 µM
[26] = second compound 3.16 µM, first compound 0.1 µM
[27] = second compound 3.16 µM, first compound 0.316 µM
[28] = second compound 3.16 µM, first compound 1 µM
[29] = second compound 3.16 µM, first compound 3.16 µM
[30] = second compound 3.16 µM, first compound 10 µM
[31] = second compound 10 µM, first compound 0.0316 µM
[32] = second compound 10 µM, first compound 0.1 µM
[33] = second compound 10 µM, first compound 0.316 µM
[34] = second compound 10 µM, first compound 1 µM
[35] = second compound 10 µM, first compound 3.16 µM
[36] = second compound 10 µM, first compound 10 µM

C#Cc1c(F)ccc2cc(O)cc(-c3ncc4c(N5CC6CCC(C5)N6)nc(OCC56CCCN5CC(F)C6)nc4c3F)c12 (stereo unspecified) + CN(C)c1ccc(Nc2c3ccc(NC(=O)CCN4CCCC4)cc3nc3cc(NC(=O)CCN4CCCC4)ccc23)cc1
IC50 (second compound 0.0316 µM): > 10 µM | IC50 (second compound 0.1 µM): > 10 µM | IC50 (second compound 0.316 µM): > 10 µM | IC50 (second compound 1 µM): 8.19 µM | IC50 (second compound 3.16 µM): 5.09 µM | IC50 (second compound 10 µM): 0.378 µM | viability, T/C [1]: 106% | viability, T/C [2]: 76.6% | viability, T/C [3]: 97.9% | viability, T/C [4]: 78.1% | viability, T/C [5]: 84.5% | viability, T/C [6]: 62.2% | viability, T/C [7]: 97.3% | viability, T/C [8]: 83.7% | viability, T/C [9]: 88% | viability, T/C [10]: 84.3% | viability, T/C [11]: 93% | viability, T/C [12]: 62.1% | viability, T/C [13]: 87.8% | viability, T/C [14]: 99.1% | viability, T/C [15]: 76.3% | viability, T/C [16]: 86% | viability, T/C [17]: 89.5% | viability, T/C [18]: 54% | viability, T/C [19]: 86.1% | viability, T/C [20]: 89% | viability, T/C [21]: 86.7% | viability, T/C [22]: 73.6% | viability, T/C [23]: 74.1% | viability, T/C [24]: 44.8% | viability, T/C [25]: 86.4% | viability, T/C [26]: 85.4% | viability, T/C [27]: 87.7% | viability, T/C [28]: 79% | viability, T/C [29]: 66.2% | viability, T/C [30]: 27.9% | viability, T/C [31]: 50% | viability, T/C [32]: 50.4% | viability, T/C [33]: 59.8% | viability, T/C [34]: 38% | viability, T/C [35]: 17.2% | viability, T/C [36]: 5.16%

CC(C)(O)C1CCC(Nc2ccc3ncc(-c4cccc(C(F)(F)F)c4)n3n2)CC1 (stereo unspecified) + CN(C)c1ccc(Nc2c3ccc(NC(=O)CCN4CCCC4)cc3nc3cc(NC(=O)CCN4CCCC4)ccc23)cc1
IC50 (second compound 0.0316 µM): 2.18 µM | IC50 (second compound 0.1 µM): 2.24 µM | IC50 (second compound 0.316 µM): 1.42 µM | IC50 (second compound 1 µM): 1.75 µM | IC50 (second compound 3.16 µM): 1.37 µM | IC50 (second compound 10 µM): 0.134 µM | viability, T/C [1]: 103% | viability, T/C [2]: 83.8% | viability, T/C [3]: 74.8% | viability, T/C [4]: 74% | viability, T/C [5]: 32.3% | viability, T/C [6]: 35.5% | viability, T/C [7]: 101% | viability, T/C [8]: 91.8% | viability, T/C [9]: 70.6% | viability, T/C [10]: 70.1% | viability, T/C [11]: 36.7% | viability, T/C [12]: 39.5% | viability, T/C [13]: 93.7% | viability, T/C [14]: 63.9% | viability, T/C [15]: 85.9% | viability, T/C [16]: 58% | viability, T/C [17]: 30.1% | viability, T/C [18]: 33.2% | viability, T/C [19]: 86.6% | viability, T/C [20]: 92.6% | viability, T/C [21]: 78.8% | viability, T/C [22]: 72.3% | viability, T/C [23]: 26.2% | viability, T/C [24]: 23% | viability, T/C [25]: 77% | viability, T/C [26]: 81.9% | viability, T/C [27]: 78.2% | viability, T/C [28]: 61.9% | viability, T/C [29]: 18.6% | viability, T/C [30]: 9.94% | viability, T/C [31]: 60.9% | viability, T/C [32]: 54.3% | viability, T/C [33]: 37.5% | viability, T/C [34]: 25.9% | viability, T/C [35]: 5.34% | viability, T/C [36]: 2.55%

COc1ncnc(C2CC2)c1-c1ncc2cnn(Cc3ccc(-c4nc(C(F)(F)F)cn4C(C)C)cc3)c2n1 + CN(C)c1ccc(Nc2c3ccc(NC(=O)CCN4CCCC4)cc3nc3cc(NC(=O)CCN4CCCC4)ccc23)cc1
IC50 (second compound 0.0316 µM): > 10 µM | IC50 (second compound 0.1 µM): > 10 µM | IC50 (second compound 0.316 µM): > 10 µM | IC50 (second compound 1 µM): > 10 µM | IC50 (second compound 3.16 µM): > 10 µM | IC50 (second compound 10 µM): 0.237 µM | viability, T/C [1]: 93.5% | viability, T/C [2]: 99% | viability, T/C [3]: 95.3% | viability, T/C [4]: 89.2% | viability, T/C [5]: 104% | viability, T/C [6]: 83.2% | viability, T/C [7]: 86.9% | viability, T/C [8]: 93% | viability, T/C [9]: 94.1% | viability, T/C [10]: 78.2% | viability, T/C [11]: 100% | viability, T/C [12]: 82.2% | viability, T/C [13]: 77.3% | viability, T/C [14]: 88.4% | viability, T/C [15]: 103% | viability, T/C [16]: 79.2% | viability, T/C [17]: 93.2% | viability, T/C [18]: 82.2% | viability, T/C [19]: 66.5% | viability, T/C [20]: 89.1% | viability, T/C [21]: 98.7% | viability, T/C [22]: 74% | viability, T/C [23]: 83.4% | viability, T/C [24]: 80.9% | viability, T/C [25]: 52.1% | viability, T/C [26]: 69.2% | viability, T/C [27]: 75.3% | viability, T/C [28]: 88.8% | viability, T/C [29]: 75% | viability, T/C [30]: 62.5% | viability, T/C [31]: 50% | viability, T/C [32]: 53% | viability, T/C [33]: 51.5% | viability, T/C [34]: 41.6% | viability, T/C [35]: 37.7% | viability, T/C [36]: 9.91%
